Test results from US9237747B2, “Herbicidal compositions comprising 4-amino-3-chloro-5-fluoro-6-(4-chloro-2-fluoro-3-methoxyphenyl) pyridine-2-carboxylic acid or a derivative thereof and insecticides” (priority 2013, dated 2016).
“And” between values parts separate entries of the source, which are not always exact repeats. Identical values can stand only once. Like-named read-outs stand apart in the source and are kept apart here.

Key:
[1] = tested on: ECHCG; format: in vivo, Echinochloa crus-galli
Protocol: (§1) Seeds or nutlets of the desired test plant species were planted in a soil matrix prepared by mixing a loam or sandy loam soil (e.g., 28.6 percent silt, 18.8 percent clay, and 52.6 percent sand, with a pH of about 5.8 and an organic matter content of about 1.8 percent) and calcareous grit in an 80 to 20 ratio. The soil matrix was contained in plastic pots with a volume of 1 quart and a surface area of 83.6 square centimeters (cm^2). […] The plants were grown for 8-22 days in a greenhouse with an approximate 14 hour (h) photoperiod which was maintained at about 29° C. during the day and 26° C. during the night. Nutrients (Peters Excel® 15-5-15 5-Ca 2-Mg and iron chelate) were applied in the irrigation solution as needed and water was added on a regular basis. Supplemental lighting was provided with overhead metal halide 1000-Watt lamps as necessary. The plants were employed for testing when they reached the first through fourth true leaf stage.
(§2) Treatments consisted of the acid or esters of 4-amino-3-chloro-6-(4-chloro-2-fluoro-3-methoxyphenyl)-5-fluoropyridine-2-carboxylic acid (Compound A), each formulated as an SC (suspension concentrate), and various insecticidal components alone and in combination. Forms of compound A were applied on an acid equivalent basis.
(§3) For treatments comprised of formulated compounds, measured amounts of compounds were placed individually in 25 mL glass vials and diluted in a volume of 1.25% volume per volume (v/v) Agri-Dex® crop oil concentrate to obtain 12× stock solutions. […] Application solutions were prepared by adding an appropriate amount of each stock solution (e.g., 1 mL) and diluted to the appropriate final concentrations with the addition of […] of an aqueous mixture of 1.25% (v/v) crop oil concentrate so that the final spray solutions contained 1.25+/−0.05% (v/v) crop oil concentrate.
(§4) As required, additional water and/or 97:3 v/v acetone/DMSO was added to individual application solutions so that the final acetone and DMSO concentrations of the application solutions being compared were 8.1% and 0.25%, respectively.
(§5) All stock solutions and applications solutions were visually inspected for compound compatibility prior to application. Spray solutions were applied to the plant material with an overhead Mandel track sprayer equipped with 8002E nozzles calibrated to deliver 187 L/ha over an application area of 0.503 square meters (m^2) at a spray height of 18 to 20 inches (46 to 50 cm) above average plant canopy height. Control plants were sprayed in the same manner with the solvent blank.
(§6) The treated plants and control plants were placed in a greenhouse as described above and watered by sub-irrigation to prevent wash-off of the test compounds. After approximately 3 weeks, the condition of the test plants as compared to that of the untreated plants was determined visually and scored on a scale of 0 to 100 percent where 0 corresponds to no injury or growth inhibition and 100 corresponds to complete kill.
(§7) Colby's equation was used to determine the herbicidal effects expected from the mixtures (Colby, S. R. Calculation of the synergistic and antagonistic response of herbicide combinations. Weeds 1967, 15, 20-22.).
(§8) The following equation was used to calculate the expected activity of mixtures containing two active ingredients, A and B: Expected=A+B−(A×B/100)

[2] = tested on: IPOHE; format: in vivo, Ipomoea hederacea
Protocol: as §1, §2, §3, §4, §5, §6, §7, §8

**Q.** Which results are given for `COc1c(Cl)ccc(-c2nc(C(=O)O)c(Cl)c(N)c2F)c1F` [Compound A Acid, 4-amino-3-chloro-6-(4-chloro-2-fluoro-3-methoxyphenyl)-5-fluoropyridine-2-carboxylic acid]?
**A.** Visual Weed Control (%) - 20 DAA ECHCG Obs ([1]; 4.38 g ae/ha alone): 60%; Visual Weed Control (%) - 20 DAA ECHCG Obs ([1]; 5.3 g ae/ha alone): 65%; Visual Weed Control (%) - 20 DAA ECHCG Obs ([1]; 8.75 g ae/ha alone): 80%; Visual Weed Control (%) - 20 DAA ECHCG Obs ([1]; 10.6 g ae/ha alone): 90%; Visual Weed Control (%) - 20 DAA ECHCG Obs ([1]; 17.5 g ae/ha alone): 95%; Visual Weed Control (%) - 21 DAA ECHCG Obs ([1]; 5.3 g ae/ha alone): 65%; Visual Weed Control (%) - 21 DAA ECHCG Obs ([1]; 10.6 g ae/ha alone): 85%; Visual Weed Control (%) - 21 DAA ECHCG Obs ([1]; 21.2 g ae/ha alone): 95%; Visual Weed Control (%) - 20 DAA ECHCG Obs ([1]; 21.2 g ae/ha alone): 95%; Visual Weed Control (%) - 21 DAA IPOHE Obs ([2]; 5.3 g ae/ha alone): 10%; Visual Weed Control (%) - 21 DAA IPOHE Obs ([2]; 10.6 g ae/ha alone): 10%; Visual Weed Control (%) - 21 DAA IPOHE Obs ([2]; 21 DAA, 5.3 g ae/ha alone): 10%; Visual Weed Control (%) - 21 DAA IPOHE Obs ([2]; 21 DAA, 10.6 g ae/ha alone): 10%; Visual Weed Control (%) - 21 DAA IPOHE Obs ([2]; 21 DAA, 21.2 g ae/ha alone): 25%; Visual Weed Control (%) - 21 DAA IPOHE Obs ([2]; 21.2 g ae/ha alone): 25%

**Q.** `COc1c(Cl)ccc(-c2nc(C(=O)OCc3ccccc3)c(Cl)c(N)c2F)c1F` [Compound A Benzyl Ester] was tested. Which “Visual Weed Control (%) - 20 DAA ECHCG Obs” value ([1]; 4.38 g ae/ha alone) did it give?
**A.** 60% and 70%

**Q.** And the “Visual Weed Control (%) - 19 DAA ECHCG Obs” value ([1]; 8 g ae/ha alone)?
**A.** 85%

**Q.** What about the “Visual Weed Control (%) - 20 DAA ECHCG Obs” value ([1]; 8 g ae/ha alone) of the same compound?
**A.** 70%

**Q.** And the “Visual Weed Control (%) - 22 DAA ECHCG Obs” value ([1]; 8 g ae/ha alone)?
**A.** 50%

**Q.** What about the “Visual Weed Control (%) - 20 DAA ECHCG Obs” value ([1]; 8.75 g ae/ha alone) of the same compound?
**A.** 85% and 80%

**Q.** What about the “Visual Weed Control (%) - 19 DAA ECHCG Obs” value ([1]; 16 g ae/ha alone) of the same compound?
**A.** 85%

**Q.** And the “Visual Weed Control (%) - 22 DAA ECHCG Obs” value ([1]; 16 g ae/ha alone)?
**A.** 60%

**Q.** What about the “Visual Weed Control (%) - 20 DAA ECHCG Obs” value ([1]; 17.5 g ae/ha alone) of the same compound?
**A.** 90% and 95%

**Q.** And the “Visual Weed Control (%) - 21 DAA ECHCG Obs” value ([1]; 4.38 g ae/ha alone)?
**A.** 70%

**Q.** What about the “Visual Weed Control (%) - 21 DAA ECHCG Obs” value ([1]; 8.75 g ae/ha alone) of the same compound?
**A.** 85%

**Q.** And the “Visual Weed Control (%) - 21 DAA ECHCG Obs” value ([1]; 17.5 g ae/ha alone)?
**A.** 90%

**Q.** What about the “Visual Weed Control (%) - 22 DAA ECHCG Obs” value ([1]; 22 DAA, 8 g ae/ha alone) of the same compound?
**A.** 45% and 50%

**Q.** And the “Visual Weed Control (%) - 22 DAA ECHCG Obs” value ([1]; 22 DAA, 16 g ae/ha alone)?
**A.** 60%

**Q.** What about the “Visual Weed Control (%) - 22 DAA ECHCG Obs” value ([1]; 22 DAA, 32 g ae/ha alone) of the same compound?
**A.** 90% and 95%

**Q.** What about the “Visual Weed Control (%) - 19 DAA ECHCG Obs” value ([1]; 32 g ae/ha alone) of the same compound?
**A.** 95%

**Q.** What about the “Visual Weed Control (%) - 20 DAA IPOHE Obs” value ([2]; 4.38 g ae/ha alone) of the same compound?
**A.** 10%

**Q.** And the “Visual Weed Control (%) - 20 DAA IPOHE Obs” value ([2]; 8 g ae/ha alone)?
**A.** 10%

**Q.** And the “Visual Weed Control (%) - 21 DAA IPOHE Obs” value ([2]; 8 g ae/ha alone)?
**A.** 10%

**Q.** And the “Visual Weed Control (%) - 20 DAA IPOHE Obs” value ([2]; 8.75 g ae/ha alone)?
**A.** 15%

**Q.** And the “Visual Weed Control (%) - 20 DAA IPOHE Obs” value ([2]; 16 g ae/ha alone)?
**A.** 40%

**Q.** And the “Visual Weed Control (%) - 21 DAA IPOHE Obs” value ([2]; 16 g ae/ha alone)?
**A.** 50%

**Q.** And the “Visual Weed Control (%) - 22 DAA IPOHE Obs” value ([2]; 16 g ae/ha alone)?
**A.** 10%

**Q.** And the “Visual Weed Control (%) - 19 DAA IPOHE Obs” value ([2]; 8 g ae/ha alone)?
**A.** 20%

**Q.** And the “Visual Weed Control (%) - 19 DAA IPOHE Obs” value ([2]; 16 g ae/ha alone)?
**A.** 40%

**Q.** And the “Visual Weed Control (%) - 19 DAA IPOHE Obs” value ([2]; 32 g ae/ha alone)?
**A.** 50%

**Q.** What about the “Visual Weed Control (%) - 21 DAA IPOHE Obs” value ([2]; 21 DAA, 4.38 g ae/ha alone) of the same compound?
**A.** 10%

**Q.** What about the “Visual Weed Control (%) - 21 DAA IPOHE Obs” value ([2]; 21 DAA, 8 g ae/ha alone) of the same compound?
**A.** 10%

**Q.** And the “Visual Weed Control (%) - 21 DAA IPOHE Obs” value ([2]; 21 DAA, 8.75 g ae/ha alone)?
**A.** 10%

**Q.** And the “Visual Weed Control (%) - 21 DAA IPOHE Obs” value ([2]; 21 DAA, 17.5 g ae/ha alone)?
**A.** 20%

**Q.** What about the “Visual Weed Control (%) - 22 DAA IPOHE Obs” value ([2]; 22 DAA, 16 g ae/ha alone) of the same compound?
**A.** 10%

**Q.** What about the “Visual Weed Control (%) - 22 DAA IPOHE Obs” value ([2]; 22 DAA, 32 g ae/ha alone) of the same compound?
**A.** 35%

**Q.** What about the “Visual Weed Control (%) - 20 DAA IPOHE Obs” value ([2]; 32 g ae/ha alone) of the same compound?
**A.** 50%

**Q.** And the “Visual Weed Control (%) - 21 DAA IPOHE Obs” value ([2]; 32 g ae/ha alone)?
**A.** 60%

**Q.** What about the “Visual Weed Control (%) - 22 DAA IPOHE Obs” value ([2]; 32 g ae/ha alone) of the same compound?
**A.** 35%
